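Five concentrations, 48 hours, 96-well plates. The concentration for 50% growth inhibition is given as GI50. TGI is the concentration that stops growth completely.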
What was measured:
Assay in all cases: DTP human tumour cell line panel, 48 h
[1] = system: DU-145 prostate
[2] = system: A498 renal
[3] = system: 786-0 renal
[4] = system: HOP-62 NSCLC
[5] = system: RXF 393 renal
[6] = system: EKVX NSCLC
[7] = system: ACHN renal
[8] = system: UACC-257 melanoma
[9] = system: HL-60(TB) leukemia
[10] = system: IGROV1 ovarian
[11] = system: MDA-MB-435
[12] = system: MALME-3M melanoma
[13] = system: RPMI-8226 leukemia
[14] = system: SNB-19 CNS
[15] = system: HT29 colon
[16] = system: OVCAR-3 ovarian
[17] = system: KM12 colon
[18] = system: COLO 205 colon
[19] = system: SF-539 CNS
[20] = system: PC-3 prostate
[21] = system: NCI-H522 lung
[22] = system: OVCAR-5 ovarian
[23] = system: SK-MEL-5 melanoma
[24] = system: HCT-116 colon
[25] = system: NCI-H226 lung
[26] = system: NCI-H460 lung
[27] = system: CAKI-1 renal
[28] = system: MCF7 breast
[29] = system: A549 NSCLC
[30] = system: SW-620 colon
[31] = system: SF-268 CNS
[32] = system: SNB-75 CNS
[33] = system: SR leukemia
[34] = system: UACC-62 melanoma
[35] = system: U251 CNS
[36] = system: T-47D breast
[37] = system: MDA-MB-231 breast
[38] = system: MDA-MB-468 breast
[39] = system: LOX IMVI melanoma
[40] = system: NCI-H23 lung
[41] = system: SK-MEL-2 melanoma
[42] = system: OVCAR-8 ovarian
[43] = system: SN12C renal
[44] = system: K-562 leukemia
[45] = system: CCRF-CEM leukemia
[46] = system: HOP-92 NSCLC
[47] = system: HCC-2998 colon
[48] = system: TK-10 renal
[49] = system: M14 melanoma
[50] = system: SK-MEL-28 melanoma
[51] = system: MOLT-4 leukemia
[52] = system: SK-OV-3 ovarian
[53] = system: SF-295 CNS
[54] = system: HS 578T breast
[55] = system: HCT-15 colon
[56] = system: BT-549 breast
[57] = system: OVCAR-4 ovarian
[58] = system: UO-31 renal

CSc1ccc(NC(=O)c2ccc3nnn(/C(C#N)=C/c4ccccn4)c3c2)cc1
GI50 [1]: 1630 nM | TGI [1]: 2990 nM | GI50 [2]: 9.47 µM | TGI [2]: 21.4 µM | GI50 [3]: 1570 nM | TGI [3]: 3.05 µM | GI50 [4]: 2210 nM | TGI [4]: 5.63 µM | GI50 [5]: 1320 nM | TGI [5]: 2600 nM | GI50 [6]: 1590 nM | TGI [6]: 3000 nM | GI50 [7]: 1690 nM | TGI [7]: 3.06 µM | GI50 [8]: 1600 nM | TGI [8]: 3.07 µM | GI50 [9]: 1590 nM | TGI [9]: 7.08 µM | GI50 [10]: 1870 nM | TGI [10]: 3.57 µM | GI50 [11]: 1460 nM | TGI [11]: 2920 nM | GI50 [12]: 1570 nM | TGI [12]: 2960 nM | GI50 [13]: 1460 nM | TGI [13]: 4.7 µM | GI50 [14]: 2740 nM | TGI [14]: 8.65 µM | GI50 [15]: 1890 nM | TGI [15]: 3.89 µM | GI50 [16]: 1220 nM | TGI [16]: 2540 nM | GI50 [17]: 1600 nM | TGI [17]: 3.27 µM | GI50 [18]: 1110 nM | TGI [18]: 2390 nM | GI50 [19]: 1610 nM | TGI [19]: 2970 nM | GI50 [20]: 2040 nM | TGI [20]: 4.37 µM | GI50 [21]: 1250 nM | TGI [21]: 2650 nM | GI50 [22]: 1600 nM | TGI [22]: 3.02 µM | GI50 [23]: 1640 nM | TGI [23]: 3.05 µM | GI50 [24]: 1740 nM | TGI [24]: 3.55 µM | GI50 [25]: 2290 nM | TGI [25]: 6.14 µM | GI50 [26]: 1930 nM | TGI [26]: 4.59 µM | GI50 [27]: 1200 nM | TGI [27]: 2460 nM | GI50 [28]: 1010 nM | TGI [28]: 2510 nM | GI50 [29]: 2910 nM | TGI [29]: 11 µM | GI50 [30]: 763 nM | TGI [30]: 2140 nM | GI50 [31]: 2470 nM | TGI [31]: 7.06 µM | GI50 [32]: 1820 nM | TGI [32]: 4.38 µM | GI50 [33]: 1650 nM | TGI [33]: 34.4 µM | GI50 [34]: 1610 nM | TGI [34]: 3.05 µM | GI50 [35]: 1560 nM | TGI [35]: 3.05 µM | GI50 [36]: 1330 nM | TGI [36]: 3.06 µM | GI50 [37]: 1750 nM | TGI [37]: 3.21 µM | GI50 [38]: 904 nM | TGI [38]: 2280 nM | GI50 [39]: 879 nM | TGI [39]: 2120 nM | GI50 [40]: 1590 nM | TGI [40]: 2970 nM | GI50 [41]: 1710 nM | TGI [41]: 3.22 µM | GI50 [42]: 1750 nM | TGI [42]: 3.68 µM | GI50 [43]: 1780 nM | TGI [43]: 3.51 µM | GI50 [44]: 1230 nM | TGI [44]: > 100 µM | GI50 [45]: 1380 nM | TGI [45]: 8.01 µM | GI50 [46]: 1500 nM | TGI [46]: 3.2 µM | GI50 [47]: 1650 nM | TGI [47]: 3.01 µM | GI50 [48]: 1570 nM | TGI [48]: 2980 nM | GI50 [49]: 1670 nM | TGI [49]: 3.27 µM | GI50 [50]: 1480 nM | TGI [50]: 2820 nM | GI50 [51]: 1830 nM | TGI [51]: 8.33 µM | GI50 [52]: 5.49 µM | TGI [52]: 18 µM | GI50 [53]: 1880 nM | TGI [53]: 4.66 µM | GI50 [54]: 2070 nM | TGI [54]: 4.96 µM | GI50 [55]: 1040 nM | TGI [55]: 2300 nM | GI50 [56]: 1610 nM | TGI [56]: 3.13 µM | GI50 [57]: 1640 nM | TGI [57]: 3.01 µM | GI50 [58]: 1350 nM | TGI [58]: 2640 nM

— PubChem BioAssay (NCI)
